Laboratory results as given in patent US20100234464A1, “COMPOUNDS FOR THE TREATMENT OF METABOLIC DISORDERS” (WELLSTAT THERAPEUTICS CORPORATION, priority 2006, published 2010).

System: male db/db mice
Experiment: Antidiabetic efficacy of oral compound in male db/db mice (nonfasting serum glucose and triglycerides after 14 days)
Assay type: in vivo
Conditions: for Serum triglycerides, Mean ± SEM / Serum glucose, Mean ± SD: 100 mg/kg/day oral gavage once daily for 2 weeks, nonfasting serum, N = 5 mice/group; for Serum triglycerides, Mean ± SEM: vehicle 220.8 ± 62.1; for Serum glucose, Mean ± SD: vehicle 735.0 ± 66.0; for Effect on nonfasting serum glucose relative to vehicle-treated mice (in words) / Effect on nonfasting serum triglycerides relative to vehicle-treated mice (in words): 100 mg/kg/day oral, 2 weeks
Text: Male db/db mice have a defect in the receptor for the appetite-regulating protein leptin and consequently develop hyperphagia, obesity, insulin resistance, hyperglycemia, and hypertriglyceridemia. Furthermore, male db/db mice undergo progressive islet failure, resulting in a transition from hyperinsulinemia to insulin deficiency.
Male db/db mice (10 weeks old) were divided into weight-matched groups of 5 mice each. Age-matched male C57BL/6 mice were used as lean control animals. Mice received once-daily oral (gavage) doses of the vehicle (1% hydroxypropylmethylcellulose in water), Compound BI, Compound CF, or Compound DN for two weeks. Treatment groups and drug doses were as follows. • 1. Vehicle • 2. Compound BI 100 mg/kg/day • 3. Compound CF 100 mg/kg/day • 4. Compound DN 100 mg/kg/day
Nonfasting blood samples were collected after 14 days of treatment for determination of serum glucose, triglycerides, and free fatty acids.

| Compound | Serum triglycerides, Mean ± SEM [mg/dL] | Serum glucose, Mean ± SD [mg/dL] | Effect on nonfasting serum glucose relative to vehicle-treated mice (in words) | Effect on nonfasting serum triglycerides relative to vehicle-treated mice (in words) |
| --- | --- | --- | --- | --- |
| Cc1cccc(C)c1COc1cccc(CC(=O)O)c1 [Compound CF, 3-(2,6-Dimethylbenzyloxy)phenylacetic acid] | 90.5 ± 17.4 | 441.0 ± 162.0 | significantly reduced | significantly reduced |
| O=C(O)Cc1cccc(OCc2ccc(C(F)(F)F)cc2C(F)(F)F)c1 [Compound DN, 3-(2,4-Bis(trifluoromethyl)benzyloxy)phenylacetic acid] | 157.2 ± 40.3 | 396.0 ± 84.0 | significantly reduced | significantly reduced |
| Cc1cccc(C)c1COc1cccc(C(=O)CCC(=O)O)c1 [Compound BI, 4-(3-(2,6-Dimethylbenzyloxy)phenyl)-4-oxobutyric acid] | 85.8 ± 13.0 | 257.0 ± 57.0 | significantly reduced | significantly reduced |
